{
  "source": "paper PMC11435065",
  "about": "“Inhibition of P-Glycoprotein Asymmetrically Alters the In Vivo Exposure Profile of SGC003F: A Novel Guanylate Cyclase Stimulator” (Pharmaceuticals, 2024)",
  "experiment": "Plasma pharmacokinetics of SGC003F in rats with or without tariquidar",
  "format": "in vivo, rat",
  "details": "for clearance / AUC(0-t) / Vd / Tmax / half-life / Cmax / bioavailability: male, Sprague-Dawley, plasma; for Vd: read-out: Vss; for bioavailability: read-out: F (bioavailability)",
  "method": "Adult Sprague Dawley rats (230–280 g) were obtained from Beijing Vital River Laboratory Animal Technology Co., Ltd. (Beijing, China). The animals were kept in a controlled environment with a 12 h light/dark cycle and stable temperature, and had free access to food and water, adapting for one week. All animal procedures were approved by the Experimental Animal Ethics Committee of Beijing Institute of Pharmacology and Toxicology (IACUC-DWZX-2023-P718).\nSGC003F and tariquidar were dissolved in a solvent consisting of 11% isopropyl myristate, 74% polyethylene glycol 35 castor oil, and 15% diethylene glycol monoethyl ether. The stock solution concentrations were 1 mg/mL for SGC003F and 22.5 mg/mL for tariquidar. Next, the stock solution of SGC003F and tariquidar were diluted with saline at a ratio of 1:9 and 1:3.5, respectively, to achieve a working solution of SGC003F (0.1 mg/mL) and tariquidar (5 mg/mL) for oral and intravenous administration in rats.\nThirty-six male SD rats were randomly divided into 6 groups, with 6 rats in each group. Group I: SGC003F (p.o., 1 mg/kg) + blank vehicle (control group); Group II: SGC003F (p.o., 1 mg/kg) + tariquidar (i.v., 7.5 mg/kg); Group III: SGC003F (p.o., 1 mg/kg) + tariquidar (p.o., 15 mg/kg); Group IV: SGC003F (i.v., 1 mg/kg) + blank vehicle; Group V: SGC003F (i.v., 1 mg/kg) + tariquidar (i.v., 7.5 mg/kg); Group VI: SGC003F (i.v., 1 mg/kg) + tariquidar (p.o., 15 mg/kg). Oral administration required fasting for 12 h in advance and free access to water. At 0.033 (i.v.), 0.083, 0.25, 0.5, 1, 2, 4, 8, 12, and 24 h after administration, 100 μL of blood was collected intravenously and placed in heparin tubes. All blood samples were centrifuged at 2500× g for 10 min at 4 °C, and plasma was stored at −40 °C for analysis.\nThe main pharmacokinetic parameters, such as time to peak (tmax), half-life (t1/2), peak concentration (Cmax), and area under the curve (AUC), bioavailability (F), were calculated using a non-compartmental model with WinNonlin 8.1 software (Princeton, NJ, USA).\nThe elimination rate constant (ke or λz) was determined from the terminal phase of the concentration–time curve by using a semilogarithmic plot. Furthermore, the half-life (t1/2) was calculated according to this equation t1/2 = 0.693/ke(1)\nBioavailability (F) was calculated according to Equation (2):F = Dose(i.v.) × AUC(p.o.)/Dose(p.o.) × AUC(i.v.) × 100%(2)",
  "key": {"[1]": {"details": "rat, po, 1 mg/kg, SGC003F p.o. 1 mg/kg, single"}, "[2]": {"details": "rat, po, 1 mg/kg, SGC003F p.o. 1 mg/kg, with tariquidar i.v. 7.5 mg/kg"}, "[3]": {"details": "rat, po, 1 mg/kg, SGC003F p.o. 1 mg/kg, with tariquidar p.o. 15 mg/kg"}, "[4]": {"details": "rat, po, 1 mg/kg, rat plasma, SGC003F p.o. 1 mg/kg, single"}, "[5]": {"details": "rat, po, 1 mg/kg, rat plasma, SGC003F p.o. 1 mg/kg, with tariquidar i.v. 7.5 mg/kg"}, "[6]": {"details": "rat, po, 1 mg/kg, rat plasma, SGC003F p.o. 1 mg/kg, with tariquidar p.o. 15 mg/kg"}, "[7]": {"details": "rat plasma, SGC003F p.o. 1 mg/kg, tariquidar i.v. 7.5 mg/kg"}, "[8]": {"details": "rat plasma, SGC003F p.o. 1 mg/kg, tariquidar p.o. 15 mg/kg"}, "[9]": {"details": "rat, SGC003F i.v. 1 mg/kg, tariquidar i.v. 7.5 mg/kg"}, "[10]": {"details": "rat, SGC003F i.v. 1 mg/kg, tariquidar p.o. 15 mg/kg"}, "[11]": {"details": "rat, SGC003F p.o. 1 mg/kg, tariquidar i.v. 7.5 mg/kg"}, "[12]": {"details": "rat, SGC003F p.o. 1 mg/kg, tariquidar p.o. 15 mg/kg"}},
  "note": "Where two headings read alike, the source gives them in different places.",
  "data": [
    {"smiles": "COC(=O)Nc1c(N)nc(-c2nn(Cc3sccc3F)c3ncc(F)cc23)nc1N", "note": "[SGC003F]", "values": [
      {"measurement": "clearance", "setting": "rat, iv, 1 mg/kg, SGC003F i.v. 1 mg/kg, single", "result": 0.131, "unit": "L/h/kg"},
      {"measurement": "clearance", "setting": "rat, iv, 1 mg/kg, SGC003F i.v. 1 mg/kg, with tariquidar i.v. 7.5 mg/kg", "result": 0.122, "unit": "L/h/kg"},
      {"measurement": "clearance", "setting": "rat, iv, 1 mg/kg, SGC003F i.v. 1 mg/kg, with tariquidar p.o. 15 mg/kg", "result": 0.0892, "unit": "L/h/kg"},
      {"measurement": "AUC(0-t)", "setting": "rat, iv, 1 mg/kg, rat plasma, SGC003F i.v. 1 mg/kg, single", "result": "7.62 ± 0.56", "unit": "µg·h/mL"},
      {"measurement": "AUC(0-t)", "setting": "rat, iv, 1 mg/kg, rat plasma, SGC003F i.v. 1 mg/kg, with tariquidar i.v. 7.5 mg/kg", "result": "8.17 ± 0.53", "unit": "µg·h/mL"},
      {"measurement": "AUC(0-t)", "setting": "rat, iv, 1 mg/kg, rat plasma, SGC003F i.v. 1 mg/kg, with tariquidar p.o. 15 mg/kg", "result": 11.3, "unit": "µg·h/mL"},
      {"measurement": "Vd", "setting": "rat, iv, 1 mg/kg, rat, SGC003F i.v. 1 mg/kg, single", "result": "0.419 ± 0.0318", "unit": "L/kg"},
      {"measurement": "Vd", "setting": "rat, iv, 1 mg/kg, rat, SGC003F i.v. 1 mg/kg, with tariquidar i.v. 7.5 mg/kg", "result": "0.422 ± 0.0328", "unit": "L/kg"},
      {"measurement": "Vd", "setting": "rat, iv, 1 mg/kg, rat, SGC003F i.v. 1 mg/kg, with tariquidar p.o. 15 mg/kg", "result": "0.382 ± 0.0266", "unit": "L/kg"},
      {"measurement": "Tmax", "setting": "[1]", "result": "1.33 ± 0.52", "unit": "h"},
      {"measurement": "half-life", "setting": "[1]", "result": "3.45 ± 0.46", "unit": "h"},
      {"measurement": "Tmax", "setting": "[2]", "result": "1.5 ± 0.55", "unit": "h"},
      {"measurement": "half-life", "setting": "[2]", "result": "4.31 ± 0.91", "unit": "h"},
      {"measurement": "Tmax", "setting": "[3]", "result": "2.33 ± 1.37", "unit": "h"},
      {"measurement": "half-life", "setting": "[3]", "result": "4.35 ± 0.35", "unit": "h"},
      {"measurement": "AUC(0-t)", "setting": "[4]", "result": "3.54 ± 0.61", "unit": "µg·h/mL"},
      {"measurement": "Cmax", "setting": "[4]", "result": "0.673 ± 0.187", "unit": "µg/mL"},
      {"measurement": "AUC(0-t)", "setting": "[5]", "result": "5.69 ± 1.08", "unit": "µg·h/mL"},
      {"measurement": "Cmax", "setting": "[5]", "result": "0.722 ± 0.111", "unit": "µg/mL"},
      {"measurement": "AUC(0-t)", "setting": "[6]", "result": 10.8, "unit": "µg·h/mL"},
      {"measurement": "Cmax", "setting": "[6]", "result": "1.43 ± 0.25", "unit": "µg/mL"},
      {"measurement": "bioavailability", "setting": "rat, po, 1 mg/kg, rat, SGC003F p.o. 1 mg/kg, single", "result": 46.4, "unit": "%"},
      {"measurement": "bioavailability", "setting": "rat, po, 1 mg/kg, rat, SGC003F p.o. 1 mg/kg, with tariquidar i.v. 7.5 mg/kg", "result": 69.7, "unit": "%"},
      {"measurement": "bioavailability", "setting": "rat, po, 1 mg/kg, rat, SGC003F p.o. 1 mg/kg, with tariquidar p.o. 15 mg/kg", "result": 95.1, "unit": "%"},
      {"measurement": "bioavailability", "setting": "rat, po, rat, SGC003F p.o. 1 mg/kg, with tariquidar p.o. 15 mg/kg", "result": 95, "unit": "%"},
      {"measurement": "AUC0-t, Ratio 1 (with Tar (i.v.)/single)", "setting": "rat plasma, SGC003F i.v. 1 mg/kg, tariquidar i.v. 7.5 mg/kg", "result": 1.07},
      {"measurement": "AUC0-t, Ratio 2 (with Tar (p.o.)/single)", "setting": "rat plasma, SGC003F i.v. 1 mg/kg, tariquidar p.o. 15 mg/kg", "result": 1.49},
      {"measurement": "AUC0-t, Ratio 1 (with Tar (i.v.)/single)", "setting": "[7]", "result": 1.61},
      {"measurement": "Cmax, Ratio 1 (with Tar (i.v.)/single)", "setting": "[7]", "result": 1.07},
      {"measurement": "AUC0-t, Ratio 2 (with Tar (p.o.)/single)", "setting": "[8]", "result": 3.05},
      {"measurement": "Cmax, Ratio 2 (with Tar (p.o.)/single)", "setting": "[8]", "result": 2.13},
      {"measurement": "CL, Ratio 1 (with Tar (i.v.)/single)", "setting": "[9]", "result": 0.93},
      {"measurement": "Vss, Ratio 1 (with Tar (i.v.)/single)", "setting": "[9]", "result": 1.00},
      {"measurement": "CL, Ratio 2 (with Tar (p.o.)/single)", "setting": "[10]", "result": 0.68},
      {"measurement": "Reduction of CL versus control group", "setting": "[10]", "result": 32, "unit": "%"},
      {"measurement": "Vss, Ratio 2 (with Tar (p.o.)/single)", "setting": "[10]", "result": 0.91},
      {"measurement": "F, Ratio 1 (with Tar (i.v.)/single)", "setting": "[11]", "result": 1.50},
      {"measurement": "Tmax, Ratio 1 (with Tar (i.v.)/single)", "setting": "[11]", "result": 1.13},
      {"measurement": "t1/2, Ratio 1 (with Tar (i.v.)/single)", "setting": "[11]", "result": 1.25},
      {"measurement": "F, Ratio 2 (with Tar (p.o.)/single)", "setting": "[12]", "result": 2.05},
      {"measurement": "Tmax, Ratio 2 (with Tar (p.o.)/single)", "setting": "[12]", "result": 1.75},
      {"measurement": "t1/2, Ratio 2 (with Tar (p.o.)/single)", "setting": "[12]", "result": 1.26}
    ]}
  ]
}
